These results are taken from DBAASP.

What all share (assay): ≥ marks a high value that may be exact or a test limit, other limits are often not marked, values filed in µg/mL are converted to µM
Assay [1] concerns Klebsiella pneumoniae ATCC BAA-1705.
The test system of assay [2] is Escherichia coli W3110.
Assay [3] has as its system Shigella flexneri MTCC 1457.
Assay [4] deals with Klebsiella aerogenes MTCC 111.
In assay [5] the test system is Staphylococcus aureus MTCC 3160.
Assay [6] relates to Proteus mirabilis MTCC 3158.
Assay [7] relates to Haemophilus influenzae MTCC 621.
In assay [8] the test system is Alkalihalobacillus alcalophilus MTCC 860.
For assay [9], the system named is Citrobacter freundii MTCC 1658.
In assay [10] the test system is Vibrio cholerae MTCC 3904.
The subject of assay [11] is Pseudomonas aeruginosa MTCC 3542.
Assay [12] concerns Staphylococcus haemolyticus MTCC 3383.
In assay [13] the test system is Corynebacterium glutamicum MTCC 2679.
The test system of assay [14] is Shigella boydii MTCC 11947.
Assay [15] relates to Proteus vulgaris MTCC 1771.
For assay [16], the system named is Salmonella enterica MTCC 9844.
For assay [17], the system named is Escherichia coli K12 MG1655.
Assay [18] relates to Salmonella enterica subsp. enterica serovar Typhimurium ATCC 14028.
The test system of assay [19] is Enterococcus faecalis MTCC 439.
The subject of assay [20] is Alcaligenes faecalis MTCC 1937.
The test system of assay [21] is Acinetobacter baumannii MTCC 9829.
The test system of assay [22] is Pluralibacter gergoviae MTCC 3826.
The test system of assay [23] is Citrobacter koseri MTCC 1657.
Assay [24] deals with Stenotrophomonas maltophilia MTCC 1890.
Assay [25] has as its system Klebsiella pneumoniae MTCC 7407.
The test system of assay [26] is Bordetella bronchiseptica MTCC 6837.
Assay [27] concerns Klebsiella oxytoca MTCC 2275.
Assay [28] has as its system Salmonella sp.
Assay [29] relates to Enterococcus faecalis.
For assay [30], the system named is Streptococcus sanguinis NY101.
In assay [31] the test system is Staphylococcus aureus.
The subject of assay [32] is Streptococcus mutans UA159.
Assay [33] deals with Pseudomonas aeruginosa PAK.

Converted amounts (≈) assume the structure as drawn.

For the molecule `CC[C@H](C)[C@H](N)C(=O)N[C@@H](Cc1c[nH]c2ccccc12)C(=O)N[C@@H](Cc1c[nH]c2ccccc12)C(=O)N[C@@H](C)C(=O)N[C@@H](CCCCN)C(=O)N[C@@H](Cc1c[nH]c2ccccc12)C(=O)NCC(=O)N[C@@H](CC(C)C)C(=O)N[C@@H](CCCCN)C(=O)N[C@@H](CC(C)C)C(=O)N[C@@H](CC(C)C)C(=O)N[C@@H](CCCN=C(N)N)C(=O)N[C@@H](Cc1ccc(O)cc1)C(=O)N[C@@H](CCCN=C(N)N)C(=O)N[C@@H](CCCN=C(N)N)C(=O)N[C@H](C(=O)N[C@@H](Cc1ccc(O)cc1)C(=O)O)[C@@H](C)CC` [IWWAKWGLKLLRYRRIY], the MIC in [1] is 8 µM (≈ 18.6 µg/mL); in assay [2], 1 µM (≈ 2.32 µg/mL).

Consider `CC[C@H](C)[C@H](NC(=O)[C@H](C)NC(=O)[C@H](CC(C)C)NC(=O)[C@H](C)NC(=O)[C@H](CC(C)C)NC(=O)[C@H](CCCCN)NC(=O)[C@H](CC(C)C)NC(=O)[C@H](C)NC(=O)[C@H](CO)NC(=O)[C@H](C)NC(=O)[C@H](CC(C)C)NC(=O)[C@H](CC(C)C)NC(=O)[C@H](CCCCN)NC(=O)[C@H](CCCCN)NC(=O)[C@H](C)NC(=O)[C@@H](NC(=O)[C@@H](N)CCC(=O)O)C(C)C)C(=O)O` [EVAKKLLASALKLALAI], for which the MIC in assay [3] was not below 73.1 µM; in assay [4], not below 73.1 µM; in assay [5] it was not below 73.1 µM; in assay [6] it was not below 73.1 µM; in assay [7] it was not below 36.5 µM; in assay [8], not below 73.1 µM. Moreover, the MIC was not below 73.1 µM in assay [9]; not below 73.1 µM in assay [10]; not below 73.1 µM in assay [11]; not below 73.1 µM in [12]; 18.3 µM (≈ 32 µg/mL) in [13]; not below 73.1 µM in [14]. For the same molecule, the MIC was not below 73.1 µM in [15]; not below 73.1 µM in assay [16]; not below 73.1 µM in assay [17]; more than 73.1 µM in assay [18]; not below 73.1 µM in [19]; not below 73.1 µM in assay [20]. For the same molecule, the MIC in [21] was not below 73.1 µM; in assay [22] it was not below 73.1 µM; in assay [23] it was not below 73.1 µM; in assay [24] it was not below 73.1 µM; in assay [25], not below 73.1 µM; in assay [26], 9.13 µM (≈ 16 µg/mL). In assay [27], this molecule returned an MIC not below 73.1 µM.

In the case of `CC[C@H](C)[C@H](NC(=O)[C@H](C)N)C(=O)N[C@H](C(=O)N[C@@H](CCC(=O)O)C(=O)N[C@@H](CCC(N)=O)C(=O)N[C@@H](CC(C)C)C(=O)N[C@@H](CCCN=C(N)N)C(=O)N[C@@H](CCCCN)C(=O)N[C@@H](CCCN=C(N)N)C(=O)N[C@@H](CS)C(=O)O)C(C)C` [AIVEQLRKRC], the MIC in [3], in assay [4], in assay [5], in assay [6], in assay [7] and in assay [8] was not below 105 µM throughout. For the same molecule, the MIC in assay [9], in assay [10], in assay [11], in assay [12], in [13] and in [14] was not below 105 µM each time. Besides, the MIC was not below 105 µM in assay [15]; not below 105 µM in assay [16]; not below 105 µM in assay [17]; more than 105 µM in assay [18]; not below 105 µM in assay [19]; not below 105 µM in assay [20]. Moreover, the MIC in [21], in [22], in [23], in assay [24], in assay [25] and in assay [26] was not below 105 µM in each case. In addition, in assay [27], the MIC is not below 105 µM.

Regarding `CC(C)C[C@H](NC(=O)[C@H](CCCCN)NC(=O)[C@H](CC(C)C)NC(=O)[C@@H](N)CC(C)C)C(=O)N[C@@H](Cc1ccccc1)C(=O)N[C@@H](Cc1ccccc1)C(=O)N1CCC[C@H]1C(=O)N[C@@H](Cc1ccccc1)C(=O)N[C@@H](CC(C)C)C(=O)N[C@@H](CCC(=O)O)C(=O)N[C@H](C(=O)NCC(=O)N[C@@H](CCC(=O)O)C(=O)O)[C@@H](C)O` [LLKLFFPFLETGE], the MIC in assay [28] is not below 256 µM.

On to `CC(C)C[C@H](NC(=O)[C@H](Cc1cnc[nH]1)NC(=O)[C@H](Cc1ccccc1)NC(=O)[C@H](Cc1cnc[nH]1)NC(=O)[C@@H](N)Cc1ccccc1)C(=O)N[C@@H](Cc1cnc[nH]1)C(=O)N[C@@H](Cc1ccccc1)C(N)=O` [FHFHLHF], for which the MIC was 16.3 µM (≈ 16 µg/mL) in assay [29]; 16.3 µM (≈ 16 µg/mL) in assay [30]; 32.5 µM (≈ 32 µg/mL) in assay [31]; 8.13 µM (≈ 7.99 µg/mL) in [32]; 8.13 µM (≈ 7.99 µg/mL) in [2]; 16.3 µM (≈ 16 µg/mL) in [33].

Take `CC(C)C[C@H](NC(=O)CNC(=O)[C@H](CC(C)C)NC(=O)[C@H](CCCCN)NC(=O)[C@H](C)NC(=O)[C@H](Cc1c[nH]c2ccccc12)NC(=O)[C@H](Cc1c[nH]c2ccccc12)NC(=O)[C@@H](N)Cc1c[nH]c2ccccc12)C(=O)N[C@@H](CCCCN)C(=O)N[C@@H](CC(C)C)C(=O)N[C@@H](CC(C)C)C(=O)N[C@@H](CCCN=C(N)N)C(=O)N[C@@H](Cc1ccc(O)cc1)C(=O)N[C@@H](CCCN=C(N)N)C(=O)N[C@@H](CCCN=C(N)N)C(=O)N[C@@H](Cc1c[nH]c2ccccc12)C(=O)N[C@@H](Cc1ccc(O)cc1)C(=O)O` [WWWAKLGLKLLRYRRWY]: the MIC in assay [1] is 8 µM (≈ 19.2 µg/mL); in [2], 4 µM (≈ 9.58 µg/mL).

Turning to `CC[C@H](C)[C@H](NC(=O)[C@H](CCCCN)NC(=O)[C@H](CCCCN)NC(=O)[C@H](C)NC(=O)[C@H](CCCCN)NC(=O)[C@H](CO)NC(=O)[C@H](CCCN=C(N)N)NC(=O)[C@H](Cc1c[nH]c2ccccc12)NC(=O)[C@H](CCCCN)NC(=O)[C@H](CCCCN)NC(=O)[C@H](Cc1c[nH]c2ccccc12)NC(=O)[C@H](CCCN=C(N)N)NC(=O)[C@H](CCCCN)NC(=O)[C@@H](N)Cc1ccc(O)cc1)C(=O)N[C@@H](CC(C)C)C(=O)O` [YKRWKKWRSKAKKIL], the MIC in assay [3] was 3.96 µM (≈ 8 µg/mL); in assay [4], not below 63.4 µM; in [5] it was not below 63.4 µM; in [6], not below 63.4 µM; in [7], 15.8 µM (≈ 32 µg/mL); in assay [8], 31.7 µM (≈ 64 µg/mL). The MIC in assay [9] was not below 63.4 µM; in assay [10], not below 63.4 µM; in assay [11], not below 63.4 µM; in [12], 1.98 µM (≈ 4 µg/mL); in assay [13] it was 0.99 µM (≈ 2 µg/mL); in assay [14] it was 3.96 µM (≈ 8 µg/mL). In addition, the MIC is 31.7 µM (≈ 64 µg/mL) in [15]; 7.92 µM (≈ 16 µg/mL) in assay [16]; 1.98 µM (≈ 4 µg/mL) in assay [17]; 15.8 µM (≈ 32 µg/mL) in assay [18]; not below 63.4 µM in assay [19]; not below 63.4 µM in assay [20]. Further, the MIC is 7.92 µM (≈ 16 µg/mL) in assay [21]; not below 63.4 µM in assay [22]; 7.92 µM (≈ 16 µg/mL) in [23]; not below 63.4 µM in assay [24]; not below 63.4 µM in [25]; 3.96 µM (≈ 8 µg/mL) in assay [26]. In assay [27], this molecule showed an MIC of 15.8 µM (≈ 32 µg/mL).
